The source of these data is patent publication US6620838B1, “Benzopyrazone compounds, compositions thereof, and methods of treatment therewith” (Signal Pharmaceuticals, Inc., priority 2002, dated 2003).

A word on the IC50: it is the concentration needed to halve the response being measured.

Holding throughout (type): cell-based
Test [1] concerns BG-1 ovarian carcinoma cells. The experiment in a line: Inhibition of BG-1 ovarian carcinoma cell proliferation. Particulars: 17β-estradiol (0.1 nM)-dependent growth, 72 h, 3H-thymidine incorporation. As to the method: BG-1 cells serve as a useful in vitro model for the evaluation of the effects of antiestrogenic compounds on ovarian tumor growth (Greenberger, L. M. et. al., Clin. Cancer Res. 7:3166-3177, 2001). Benzopyranone compounds having an IC50<100 nM are particularly useful as anti-ovarian cancer agents in vivo.
BG-1 ovarian carcinoma cells were plated in 24-well dishes at a density of 5×10^3 cells/well in phenol-red free DMEM:F-12 (1:1) medium containing 1% antibiotics, 0.05% mercaptoethanol, 0.01% ethanolamine, 0.42 ng/mL sodium selenite and 5% charcoal-stripped FCS. Illustrative benzopyranone compounds (0.1-1000 nM in 0.2% DMSO) and 0.1 nM 17β-estradiol were added to the cultured BG-1 ovarian carcinoma cells and incubated for 72 h. Subsequently, ^3H-labeled thymidine was added and its incorporation into cells was measured following 4h incubation. The results are expressed as IC50 (nM) values (Table 2) which is the concentration of the benzopyranone compound necessary to inhibit the growth of BG-1 ovarian carcinoma cells by 50% relative to controls.
In general terms: Dividing cells build labelled thymidine or BrdU into new DNA.

Test [2] has as its system IL-6 release from human U-2 OS osteosarcoma cells stably transfected with human ER-α or ER-β. The experiment in a line: Inhibition of IL-6 release. To be noted: U2OS, U-2 OS cells with ER-α or ER-β (table does not say which), stimulated with 2.5 ng/ml TNFα and 1 ng/ml IL-1β, IL-6 ELISA after 24 h. As to the method: Illustrative benzopyranone compounds were tested for their ability to inhibit IL-6 release from human U-2 OS osteosarcoma cells stably transfected with human ER-α or ER-β. (Stein, B.; Yang, M. X. Mol. Cell. Biol 15: 4971-4979, 1995; Poli, V. et. al., EMBO J. 13:1189-1196, 1994). […] Benzopyranone compounds having an IC50<100 nM are particularly useful as bone resorption inhibitors in vivo. Accordingly, the compounds of this assay, illustrative benzopyranone compounds, are particularly useful for the treatment of osteoporosis, Paget's disease and metastatic bone cancer. These compounds are also useful as anti-cancer agents as elevated IL-6 levels are responsible for certain cancers such as multiple myeloma, prostate cancer, ovarian cancer, renal carcinoma and cervical carcinoma.
Human U-2 OS osteosarcoma cells (ATCC) were stably transfected with expression vectors for human full-length ER-α or ER-β, respectively, using standard molecular biology techniques. Stable subclones were generated that expressed high levels of ER-α or ER-β mRNA. The expression of ER-α and ER-β was confirmed using RNase protection analysis.
Cells were plated into 96-well plates at a density of 80,000 cells per well in phenol red-free media with charcoal-stripped fetal calf serum. Twenty four hours later, cells were either treated with vehicle (0.2% DMSO) or test compound ([…] in 0.2% DMSO). Thirty minutes later cells were stimulated with 2.5 ng/ml TNFα and 1 ng/ml IL-1β. Twenty-four hours later the media supernatant was analyzed for cytokine production (IL-6) using commercially available ELISA kits following the manufacturer's instructions. Cytokine production in the presence of vehicle (0.2% DMSO) was set to 100%. The results are expressed as IC50 (nM) values (Table 2) which is the concentration of the benzopyranone compound necessary to inhibit the production of IL-6 50% relative to the amount of IL-6 produced in the presence of vehicle.
In general terms: In an ELISA, binding on a coated surface is turned into a signal by an enzyme label.

For test [3], the system named is MCF-7 breast cancer cells. The test can be described thus: Inhibition of MCF-7 breast cancer cell proliferation. Particulars: Homo sapiens, MCF7; 17β-estradiol (0.1 nM)-dependent growth, 72 h, 3H-thymidine incorporation. As for the experimental part:
MCF-7 cells represent an excellent in vitro system to study the effects of compounds on estrogen-dependent breast cancer growth. (May, F. E. B.; Westley, B. R. J. Biol. Chem. 262:15894-15899, 1987). Benzopyranone compounds having an IC50<100 nM are particularly useful as anti-breast cancer agents in vivo.
MCF-7 breast carcinoma cells were plated in 24-well dishes at a density of 5×10^3 cells/well in phenol-red free DMEM:F-12 (1:1) medium containing 1% antibiotics, 0.05% mercaptoethanol, 0.01% ethanolamine, 0.42 ng/mL sodium selenite and 5% charcoal-stripped FCS.
Illustrative benzopyranone compounds (0.1-1000 nM in 0.2% DMSO) and 0.1 nM 17β-estradiol were added to the cultured MCF-7 breast cancer cells for 72 h. Subsequently, ^3H-labeled thymidine was added and its incorporation into cells was measured following 4 h incubation. The results are expressed as IC50 (nM) values (Table 2) which is the concentration of the benzopyranone compound necessary to inhibit the growth of MCF-7 breast cancer cells by 50% relative to controls.

As to `O=c1oc2cc(O)ccc2c(Cc2ccc(OCCN3CCCC3)cc2)c1-c1ccc(C(F)(F)F)cc1Cl`, the IC50 in test [1] stood at 3.4 nM; in test [2] it was 0.4 nM; in test [3], 5.5 nM.

For `O=c1oc2cc(O)ccc2c(Cc2ccc(OCCN3CCCC3)cc2)c1-c1ccc(Cl)cc1Cl`, the figures for the IC50 in test [1], in test [2] and in test [3] were 0.69 nM, 0.32 nM and 5.4 nM, respectively.

Regarding `O=c1oc2cc(O)ccc2c(Cc2ccc(OCCN3CCCC3)cc2)c1-c1ccc(C(F)(F)F)cc1C(F)(F)F`, the 50% inhibitory concentration (IC50) was determined as 6.6 nM in test [1], 0.41 nM in test [2] and 19 nM in test [3].

Regarding `C=C/C(=C\C=C\OCCN1CCCC1)Cc1c(-c2ccc(C(F)(F)F)cc2)c(=O)oc2cc(O)ccc12`, the concentration for half-maximal inhibition (IC50) in test [1] was determined as 9.35 nM; in test [2], 1.45 nM; in test [3], 15.8 nM.

Consider `O=c1oc2cc(O)ccc2c(Cc2ccc(OCCN3CCCC3)cc2)c1-c1ccc(Cl)cc1C(F)(F)F`, for which the half-maximal inhibitory concentration (IC50) in test [1] amounted to 3.2 nM; in test [2], 0.45 nM; in test [3] it was 4.1 nM.
